Data published in ChEMBL document CHEMBL1201862, “PubChem BioAssay data set” (2004).
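The compound was tested at five concentrations on cells cultured in 96-well plates, with a 48-hour exposure period. GI50 marks 50% less growth.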 Active and inactive are the calls of the source. No stated cut-off is given here; in the data, active = GI50 up to about 1.1 µM and inactive = higher.

What was measured:
Assay in all cases: NCI tumour cell line growth inhibition, 48 h
[1] = system: 786-0
[2] = system: ACHN
[3] = system: CAKI-1
[4] = system: CCRF-CEM
[5] = system: HCC 2998
[6] = system: HL-60
[7] = system: HOP-92
[8] = system: HT-29
[9] = system: K562
[10] = system: KM12
[11] = system: Malme-3M
[12] = system: RPMI-8226
[13] = system: RXF 393
[14] = system: SF-295
[15] = system: SK-MEL-28
[16] = system: SK-MEL-2
[17] = system: SK-OV-3
[18] = system: SW-620
[19] = system: UACC-257
[20] = system: UACC-62

Structure (SMILES) | GI50 [1] | GI50 [2] | GI50 [3] | GI50 [4] | GI50 [5] | GI50 [6] | GI50 [7] | GI50 [8] | GI50 [9] | GI50 [10] | GI50 [11] | GI50 [12] | GI50 [13] | GI50 [14] | GI50 [15] | GI50 [16] | GI50 [17] | GI50 [18] | GI50 [19] | GI50 [20]
COc1cc(/C=C2\NC(=O)C(Cc3cc(OC)c(OC)c(C)c3OC)N(C(C)=O)C2=O)c(OC)c(C)c1OC (stereo not given) | > 100 µM (inactive) | > 100 µM (inactive) | 54.8 µM (inactive) | 45.2 µM (inactive) | > 100 µM (inactive) | 23 µM (inactive) | 29.3 µM (inactive) | > 100 µM (inactive) | 61.2 µM (inactive) | 94.6 µM (inactive) | 83.6 µM (inactive) | 45.6 µM (inactive) | 95.5 µM (inactive) | > 100 µM (inactive) | > 100 µM (inactive) | 96.4 µM (inactive) | > 100 µM (inactive) | > 100 µM (inactive) | > 100 µM (inactive) | > 100 µM (inactive)
Cc1cccc(Nc2nc3ccccc3nc2NS(=O)(=O)c2ccccc2)c1 | 39.4 µM (inactive) | 28.9 µM (inactive) | 44.1 µM (inactive) | 18.2 µM (inactive) | 0.721 µM (active) | 13.8 µM (inactive) | 11 µM (inactive) | 26.6 µM (inactive) | 72.1 µM (inactive) | 20.3 µM (inactive) | 17.1 µM (inactive) | 7.01 µM (inactive) | 27.7 µM (inactive) | 14.5 µM (inactive) | 38.7 µM (inactive) | 14.3 µM (inactive) | 25.2 µM (inactive) | 29.6 µM (inactive) | 26.1 µM (inactive) | 25.6 µM (inactive)
COc1cc2c(cc1OC)OC(c1c(OC)ccc(OC)c1O)CC2 (stereo not given) | > 100 µM (inactive) | 68.7 µM (inactive) | > 100 µM (inactive) | 22.9 µM (inactive) | > 100 µM (inactive) | 20.4 µM (inactive) | > 100 µM (inactive) | > 100 µM (inactive) | > 100 µM (inactive) | > 100 µM (inactive) | 74 µM (inactive) | 37.2 µM (inactive) | > 100 µM (inactive) | 71.3 µM (inactive) | > 100 µM (inactive) | > 100 µM (inactive) | > 100 µM (inactive) | > 100 µM (inactive) | > 100 µM (inactive) | > 100 µM (inactive)
CCOC(=O)c1c(N2CCOCC2)[nH]c(=O)c(C(c2c(O)c(C(=O)OCC)c(N3CCOCC3)[nH]c2=O)C(C)C)c1O | 60.1 µM (inactive) | > 100 µM (inactive) | > 100 µM (inactive) | > 100 µM (inactive) | > 100 µM (inactive) | > 100 µM (inactive) | 80.5 µM (inactive) | > 100 µM (inactive) | > 100 µM (inactive) | > 100 µM (inactive) | > 100 µM (inactive) | > 100 µM (inactive) | > 100 µM (inactive) | 58.3 µM (inactive) | > 100 µM (inactive) | > 100 µM (inactive) | 86.5 µM (inactive) | > 100 µM (inactive) | > 100 µM (inactive) | > 100 µM (inactive)
Cc1ccccc1NC(=O)O/N=C(\Cl)C(C)C | 1.81 µM (inactive) | 1.69 µM (inactive) | 1.77 µM (inactive) | 1.48 µM (inactive) | 17.3 µM (inactive) | 2.46 µM (inactive) | 2.28 µM (inactive) | 5.56 µM (inactive) | 1.46 µM (inactive) | 18.6 µM (inactive) | 2.36 µM (inactive) | 1.86 µM (inactive) | 12.6 µM (inactive) | 18.9 µM (inactive) | 2.4 µM (inactive) | 17.8 µM (inactive) | 18.7 µM (inactive) | 1.82 µM (inactive) | 14.9 µM (inactive) | 14.9 µM (inactive)
CCOc1cc(NC(C)=O)ccc1C(=O)NN1C(=O)C(Cl)C1c1ccco1 (stereo not given) | 16.1 µM (inactive) | 15.7 µM (inactive) | 17.1 µM (inactive) | 4.58 µM (inactive) | 16 µM (inactive) | 18.4 µM (inactive) | 19.1 µM (inactive) | 19.1 µM (inactive) | 19.3 µM (inactive) | 18.5 µM (inactive) | 11.7 µM (inactive) | 18.3 µM (inactive) | 12.3 µM (inactive) | 16 µM (inactive) | 22.6 µM (inactive) | 18.6 µM (inactive) | 18.3 µM (inactive) | 32.3 µM (inactive) | 15.7 µM (inactive) | 12.6 µM (inactive)
C=C(CN(C)C)C(=O)c1ccc(C(=O)C(=C)CN(C)C)cc1 | > 100 µM (inactive) | > 100 µM (inactive) | > 100 µM (inactive) | > 100 µM (inactive) | > 100 µM (inactive) | > 100 µM (inactive) | > 100 µM (inactive) | > 100 µM (inactive) | > 100 µM (inactive) | > 100 µM (inactive) | > 100 µM (inactive) | > 100 µM (inactive) | > 100 µM (inactive) | > 100 µM (inactive) | > 100 µM (inactive) | > 100 µM (inactive) | > 100 µM (inactive) | > 100 µM (inactive) | > 100 µM (inactive) | > 100 µM (inactive)
CC1=NN(C(=O)CC(=O)Nc2ccccc2)C(=O)C1/N=N/c1ccc(S(N)(=O)=O)cc1 (stereo not given) | 66.5 µM (inactive) | > 100 µM (inactive) | 50.8 µM (inactive) | 46 µM (inactive) | 49.9 µM (inactive) | 18 µM (inactive) | > 100 µM (inactive) | > 100 µM (inactive) | 35.2 µM (inactive) | > 100 µM (inactive) | > 100 µM (inactive) | 84.5 µM (inactive) | 70.8 µM (inactive) | > 100 µM (inactive) | 61.4 µM (inactive) | > 100 µM (inactive) | > 100 µM (inactive) | 59.4 µM (inactive) | > 100 µM (inactive) | 32.8 µM (inactive)
O=C(O)CSc1nnc(Cc2ccccc2)[nH]1 | > 100 µM (inactive) | > 100 µM (inactive) | > 100 µM (inactive) | > 100 µM (inactive) | > 100 µM (inactive) | > 100 µM (inactive) | > 100 µM (inactive) | > 100 µM (inactive) | > 100 µM (inactive) | > 100 µM (inactive) | > 100 µM (inactive) | > 100 µM (inactive) | > 100 µM (inactive) | > 100 µM (inactive) | > 100 µM (inactive) | > 100 µM (inactive) | > 100 µM (inactive) | > 100 µM (inactive) | > 100 µM (inactive) | > 100 µM (inactive)
O=C1c2c(Br)sc(Br)c2[C@@H](NC(=O)C(F)(F)F)C1Br (stereo not given in full) | 2.13 µM (inactive) | 2.5 µM (inactive) | 3.6 µM (inactive) | 1.88 µM (inactive) | 3.1 µM (inactive) | 0.631 µM (active) | 2.3 µM (inactive) | 2.37 µM (inactive) | 1.93 µM (inactive) | 5.66 µM (inactive) | 2.24 µM (inactive) | 2.33 µM (inactive) | 2.14 µM (inactive) | 16.8 µM (inactive) | 3.05 µM (inactive) | 5.82 µM (inactive) | 18.7 µM (inactive) | 2.7 µM (inactive) | 1.51 µM (inactive) | 3.66 µM (inactive)
